Legend:
Selumetinib = compound: Cn1cnc2c(F)c(Nc3ccc(Br)cc3Cl)c(C(=O)NOCCO)cc21 [Selumetinib]; conditions: max 10 µM
In short: (§1)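 Viability was measured with CellTiter-Glo 2.0 luminescence after 72 hours of dosing at a final DMSO of typically 0.2%, and scaled between blank-well and DMSO-well means. Beforehand, cancer cell lines sat 24 hours at 37°C and 5% CO2 in 1536-well plates in 7.5 μl DMEM/F12 or RPMI with 10% FBS. A non-linear mixed effects model fitted two-parameter logistic curves to the dose responses. The single-agent IC50 comes from these fits.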

Savolitinib = compound: C[C@@H](c1ccc2nccn2c1)n1nnc2ncc(-c3cnn(C)c3)nc21 [Savolitinib]; conditions: max 1 µM
In short: as §1

Crizotinib = compound: C[C@@H](Oc1cc(-c2cnn(C3CCNCC3)c2)cnc1N)c1c(Cl)ccc(F)c1Cl [Crizotinib]; conditions: max 10 µM
In short: as §1

Taselisib = compound: Cc1nc(-c2cn3c(n2)-c2ccc(-c4cnn(C(C)(C)C(N)=O)c4)cc2OCC3)n(C(C)C)n1 [Taselisib]; conditions: max 10 µM
In short: as §1

Dasatinib = compound: CC1=C(C(=CC=C1)Cl)NC(=O)C2=CN=C(S2)NC3=CC(=NC(=N3)C)N4CCN(CC4)CCO [Dasatinib]; conditions: max 2 µM
In short: as §1

SG3199 = compound: CC1=CN2[C@@H](C1)C=NC3=CC(=C(C=C3C2=O)OC)OCCCCCOC4=C(C=C5C(=C4)N=C[C@@H]6CC(=CN6C5=O)C)OC [SG3199]; conditions: max 0.001 µM
In short: as §1

SRA737 = compound: N#Cc1cnc(Nc2cc(NC[C@H]3CNCCO3)c(C(F)(F)F)cn2)cn1 [SRA737]; conditions: max 10 µM
In short: as §1

Olaparib = compound: O=C(c1cc(Cc2n[nH]c(=O)c3ccccc23)ccc1F)N1CCN(C(=O)C2CC2)CC1 [Olaparib]; conditions: max 10 µM
In short: as §1

5-Fluorouracil = compound: O=c1[nH]cc(F)c(=O)[nH]1 [5-Fluorouracil]; conditions: max 20 µM
In short: as §1

Prexasertib = compound: COc1cccc(OCCCN)c1-c1cc(Nc2cnc(C#N)cn2)n[nH]1 [Prexasertib]; conditions: max 1 µM
In short: as §1

AZD5363 = compound: C1CN(CCC1(C(=O)N[C@@H](CCO)C2=CC=C(C=C2)Cl)N)C3=NC=NC4=C3C=CN4 [AZD5363]; conditions: max 10 µM
In short: as §1

AZD2811 = compound: CCN(CCO)CCCOc1ccc2c(Nc3cc(CC(=O)Nc4cccc(F)c4)[nH]n3)ncnc2c1 [AZD2811]; conditions: max 1 µM
In short: as §1

Etoposide = compound: COc1cc([C@@H]2c3cc4c(cc3[C@@H](O[C@@H]3O[C@@H]5CO[C@@H](C)O[C@H]5[C@H](O)[C@H]3O)[C@H]3COC(=O)[C@H]23)OCO4)cc(OC)c1O [Etoposide]; conditions: max 10 µM
In short: as §1

Palbociclib = compound: CC(=O)c1c(C)c2cnc(Nc3ccc(N4CCNCC4)cn3)nc2n(C2CCCC2)c1=O [Palbociclib]; conditions: max 10 µM
In short: as §1

Trametinib = compound: CC(=O)Nc1cccc(-n2c(=O)n(C3CC3)c(=O)c3c(Nc4ccc(I)cc4F)n(C)c(=O)c(C)c32)c1 [Trametinib]; conditions: max 1 µM
In short: as §1

Doxorubicin = compound: COc1cccc2c1C(=O)c1c(O)c3c(c(O)c1C2=O)C[C@@](O)(C(=O)CO)C[C@@H]3O[C@H]1C[C@H](N)[C@H](O)[C@H](C)O1 [Doxorubicin]; conditions: max 1 µM
In short: as §1

MK-2206 = compound: NC1(c2ccc(-c3nc4ccn5c(=O)[nH]nc5c4cc3-c3ccccc3)cc2)CCC1 [MK-2206]; conditions: max 10 µM
In short: as §1

AZD6738 = compound: C[C@@H]1COCCN1C2=NC(=NC(=C2)C3(CC3)[S@](=N)(=O)C)C4=C5C=CNC5=NC=C4 [AZD6738]; conditions: max 10 µM
In short: as §1

Gefitinib = compound: COc1cc2ncnc(Nc3ccc(F)c(Cl)c3)c2cc1OCCCN1CCOCC1 [Gefitinib]; conditions: max 10 µM
In short: as §1

Alisertib = compound: COc1cc(Nc2ncc3c(n2)-c2ccc(Cl)cc2C(c2c(F)cccc2OC)=NC3)ccc1C(=O)O [Alisertib]; conditions: max 10 µM
In short: as §1

AZD8186 = compound: C[C@@H](Nc1cc(F)cc(F)c1)c1cc(C(=O)N(C)C)cc2c(=O)cc(N3CCOCC3)oc12 [AZD8186]; conditions: max 10 µM
In short: as §1

Lapatinib = compound: CS(=O)(=O)CCNCc1ccc(-c2ccc3ncnc(Nc4ccc(OCc5cccc(F)c5)c(Cl)c4)c3c2)o1 [Lapatinib]; conditions: max 10 µM
In short: as §1

AZD5153 = compound: COc1nnc2ccc(N3CCC(c4ccc(OCCN5CCN(C)C(=O)[C@H]5C)cc4)CC3)nn12 [AZD5153]; conditions: max 1 µM
In short: as §1

AZD1775 = compound: C=CCn1c(=O)c2cnc(Nc3ccc(N4CCN(C)CC4)cc3)nc2n1-c1cccc(C(C)(C)O)n1 [AZD1775]; conditions: max 3 µM
In short: as §1

Carboplatin = compound: C1CC(C1)(C(=O)[O-])C(=O)[O-].N.N.[Pt+2] [Carboplatin]; conditions: max 10 µM
In short: as §1

AZD0156 = compound: CN(C)CCCOc1ccc(-c2ccc3ncc4c(c3c2)n(C2CCOCC2)c(=O)n4C)cn1 [AZD0156]; conditions: max 3 µM
In short: as §1

AZD7648 = compound: Cc1cc2ncnn2cc1Nc1ncc2c(n1)n(C1CCOCC1)c(=O)n2C [AZD7648]; conditions: max 10 µM
In short: as §1

AZD5991 = compound: Cc1c2c(nn1C)CSCc1cc(n(C)n1)CSc1cc(c3ccccc3c1)OCCCc1c(C(=O)O)n(C)c3c-2c(Cl)ccc13 [AZD5991]; conditions: max 1 µM
In short: as §1

AZD4320 = compound: CN(CC[C@H](CSC1=CC=CC=C1)NC2=C(C=C(C=C2)S(=O)(=O)NC(=O)C3=CC=C(C=C3)N4CCC(CC4)[C@H](C5=CC=CC=C5C6=CC=C(C=C6)Cl)O)S(=O)(=O)C(F)(F)F)CCO [AZD4320]; conditions: max 1 µM
In short: as §1

Gemcitabine = compound: Nc1ccn([C@@H]2O[C@H](CO)[C@@H](O)C2(F)F)c(=O)n1 [Gemcitabine]; conditions: max 0.3 µM
In short: as §1

[1] = compound: O=C(Nc1ccc2[nH]nc(-c3ccncc3)c2c1)[C@@H]1CCN(CC(=O)N2CCN(c3ccc(-c4ncccn4)cc3)CC2)C1; conditions: max 5 µM
In short: as §1

Paclitaxel = compound: CC(=O)O[C@H]1C(=O)[C@@]2(C)[C@H]([C@H](OC(=O)c3ccccc3)[C@]3(O)C[C@H](OC(=O)[C@H](O)[C@@H](NC(=O)c4ccccc4)c4ccccc4)C(C)=C1C3(C)C)[C@]1(OC(C)=O)CO[C@@H]1C[C@@H]2O [Paclitaxel]; conditions: max 3 µM
In short: as §1

Venetoclax = compound: CC1(C)CCC(CN2CCN(c3ccc(C(=O)NS(=O)(=O)c4ccc(NCC5CCOCC5)c([N+](=O)[O-])c4)c(Oc4cnc5[nH]ccc5c4)c3)CC2)=C(c2ccc(Cl)cc2)C1 [Venetoclax]; conditions: max 1 µM
In short: as §1

SN-38 = compound: CCc1c2c(nc3ccc(O)cc13)-c1cc3c(c(=O)n1C2)COC(=O)[C@]3(O)CC [SN-38]; conditions: max 0.3 µM
In short: as §1

AZD1390 = compound: CC(C)n1c(=O)n(C)c2cnc3cc(F)c(-c4ccc(OCCCN5CCCCC5)nc4)cc3c21 [AZD1390]; conditions: max 0.3 µM
In short: as §1

Cell Line: ME-180 (Cervical Carcinoma)
- IC50, cell viability 72 h (Selumetinib): > 10000 nM
- IC50, cell viability 72 h (Savolitinib): > 1000 nM
- IC50, cell viability 72 h (Crizotinib): > 10000 nM
- IC50, cell viability 72 h (Taselisib): 734 nM
- IC50, cell viability 72 h (Dasatinib): 1240 nM
- IC50, cell viability 72 h (SG3199): > 1 nM
- IC50, cell viability 72 h (SRA737): > 10000 nM
- IC50, cell viability 72 h (Olaparib): > 10 µM
- IC50, cell viability 72 h (5-Fluorouracil): > 20000 nM
- IC50, cell viability 72 h (Prexasertib): > 1000 nM
- IC50, cell viability 72 h (AZD5363): 2.13 µM
- IC50, cell viability 72 h (AZD2811): > 1000 nM
- IC50, cell viability 72 h (Etoposide): 3730 nM
- IC50, cell viability 72 h (Palbociclib): > 10000 nM
- IC50, cell viability 72 h (Trametinib): > 1000 nM
- IC50, cell viability 72 h (Doxorubicin): > 1000 nM
- IC50, cell viability 72 h (MK-2206): > 10 µM
- IC50, cell viability 72 h (AZD6738): > 10000 nM
- IC50, cell viability 72 h (Gefitinib): > 10 µM
- IC50, cell viability 72 h (Alisertib): 9.54 µM
- IC50, cell viability 72 h (AZD8186): > 10 µM
- IC50, cell viability 72 h (Lapatinib): > 10 µM
- IC50, cell viability 72 h (AZD5153): > 1000 nM
- IC50, cell viability 72 h (AZD1775): 1450 nM
- IC50, cell viability 72 h (Carboplatin): > 10 µM
- IC50, cell viability 72 h (AZD0156): > 3000 nM
- IC50, cell viability 72 h (AZD7648): > 10 µM
- IC50, cell viability 72 h (AZD5991): > 1000 nM
- IC50, cell viability 72 h (AZD4320): > 1000 nM
- IC50, cell viability 72 h (Gemcitabine): 130 nM
- IC50, cell viability 72 h [1]: > 5000 nM
- IC50, cell viability 72 h (Paclitaxel): 141 nM
- IC50, cell viability 72 h (Venetoclax): > 1000 nM
- IC50, cell viability 72 h (SN-38): 15.8 nM
- IC50, cell viability 72 h (AZD1390): > 300 nM

Cell Line: ML-2 (Acute Myeloid Leukemia)
- IC50, cell viability 72 h (Selumetinib): 381 nM
- IC50, cell viability 72 h (Savolitinib): > 1000 nM
- IC50, cell viability 72 h (Crizotinib): 1950 nM
- IC50, cell viability 72 h (Taselisib): 1530 nM
- IC50, cell viability 72 h (Dasatinib): > 2000 nM
- IC50, cell viability 72 h (SG3199): > 1 nM
- IC50, cell viability 72 h (SRA737): 995 nM
- IC50, cell viability 72 h (Olaparib): 8.05 µM
- IC50, cell viability 72 h (5-Fluorouracil): 1550 nM
- IC50, cell viability 72 h (Prexasertib): 4.33 nM
- IC50, cell viability 72 h (AZD5363): 5.95 µM
- IC50, cell viability 72 h (AZD2811): 20.9 nM
- IC50, cell viability 72 h (Etoposide): 342 nM
- IC50, cell viability 72 h (Palbociclib): 2410 nM
- IC50, cell viability 72 h (Trametinib): 20.6 nM
- IC50, cell viability 72 h (Doxorubicin): 70.3 nM
- IC50, cell viability 72 h (MK-2206): > 10 µM
- IC50, cell viability 72 h (AZD6738): 1780 nM
- IC50, cell viability 72 h (Gefitinib): > 10 µM
- IC50, cell viability 72 h (Alisertib): 0.66 µM
- IC50, cell viability 72 h (AZD8186): > 10 µM
- IC50, cell viability 72 h (Lapatinib): > 10 µM
- IC50, cell viability 72 h (AZD5153): 116 nM
- IC50, cell viability 72 h (AZD1775): 243 nM
- IC50, cell viability 72 h (Carboplatin): > 10 µM
- IC50, cell viability 72 h (AZD0156): > 3000 nM
- IC50, cell viability 72 h (AZD7648): > 10 µM
- IC50, cell viability 72 h (AZD5991): 62.6 nM
- IC50, cell viability 72 h (AZD4320): 27.5 nM
- IC50, cell viability 72 h (Gemcitabine): 13.6 nM
- IC50, cell viability 72 h [1]: 290 nM
- IC50, cell viability 72 h (Paclitaxel): 5.85 nM
- IC50, cell viability 72 h (Venetoclax): 118 nM
- IC50, cell viability 72 h (SN-38): 4.88 nM
- IC50, cell viability 72 h (AZD1390): > 300 nM
